Experiments:
[1] = Evaluation of stability by HPLC analysis of everolimus samples stored at 37, 25 and 4° C.; type: physicochemical
Protocol: Everolimus (Selleck Chemicals, Aurogene, Rome, Italy) was dissolved in DMSO (VWR, Milan, Italy) at a concentration of 1 mg/ml. The everolimus solution was subsequently diluted in 10% v/v DMSO/saline solution until obtaining a final concentration of 10 μg/ml. The resulting solution was then incubated at 4, 25 and 37° C.
Carefully weighed amounts of everolimus and distearoylphosphoethanolam ine-polyethylene glycol 2000 (DSPE-PEG2000, Lipoid, Switzerland) were dissolved in 3 ml of chloroform (Sigma-Aldrich, Milan, Italy) in a 50 ml flask. The solvent was removed by light evaporation at room temperature under a flow of nitrogen and vacuum dried for 1 hour to eliminate residual traces. The thin film obtained was reconstituted in an exact volume (3 mL) of aqueous medium. After complete reconstitution a clear micellar dispersion was obtained. The dispersion was then incubated at 4, 25 and 37° C.
The drug was quantified using the HPLC method. Briefly, the instrument used is a Portlab STAYER HPLC system equipped with a UV detector, a parallel pump and Triathlon autosampler (Portlab, Rome, Italy). The conditions used are the following: isocratic mode with acetonitrile:water (60:40, v/v) eluted at 0.8 ml/min and a Zorbax C8 column, 4.6 mm ID×250 mm, 5 μm (Agilent, Milan, Italy) equilibrated at 55° C. UV detection was performed at 278 nm. A calibration curve was constructed in the concentration interval of 0.62-10 μg/mL (r^2=0.9992).
The samples of solution were injected directly (injection volume 15 μL), whereas the micellar suspension was diluted 200 times in DMSO before being subjected to analysis. In order to reduce the carryover effects and an excessive accumulation of lipids in the column, samples of solution and micelles were injected alternately. The column was periodically washed with chloroform and methanol to avoid the accumulation of lipids and impairment of performance. All measurements were performed in triplicate and the results were expressed as the mean±D.S.

SH-SY5Y cells = assay: MTT proliferation assay, activity of stored everolimus samples; type: cell-based; details: for day of drastic decrease in anti-proliferative activity: tested at 5 nM
Protocol: (§1) Both HeLa cells (cervical cancer cell line) and SH-SY5Y cells (neuroblastoma cell line) were obtained from the American Type Culture Collection (Manassas, Va., USA) and cultured in Dulbecco's Modified Eagle's medium (DMEM with L-glutamine) supplemented with 10% (v/v) heat-inactivated foetal bovine serum (FBS), 100 U of penicillin, 100 U of streptomycin in a 5% CO2 humidified incubator at 37° C. Cell viability was verified with the standard Trypan Blue method.
(§2) The activity of everolimus in organic solution and in the micelles was determined by evaluating cell proliferation after the treatment. Briefly, the HeLa and SH-SY5Y cells were seeded in a 96-well plate at a concentration of 3000 cells/well and 6000 cells/well, respectively, and were maintained in the culture medium (100 μl) for 24 hours. After incubation at 37, 25 and 4° C. for 7, 14, 35, 50 and 77 days, the samples were suspended in the cell culture medium at a final concentration of 5 nM. Untreated cells, cells treated with a 10% v/v DMSO/saline solution (Veh) and empty micelles in saline solution, both diluted in a manner equivalent to the drug, were analysed as controls. A freshly prepared everolimus solution was used as the reference standard. Cell proliferation was evaluated using the 3-[4,5-dimethylthiazol-2-yl]-2,5-diphenyltetrazolium (MTT) assay (Sigma-Aldrich) according to the manufacturer's manual. The cells were mixed with 10 μl of MTT (0.5 mg/ml) and kept in a humidified incubator at 37° C. for 4 hours. Subsequently, 100 μl of a solubilisation solution (10% SDS with 0.01 N HCl) were added to each well. Formazan crystal solubilisation was carried out overnight in an incubator a 37° C. The next day, cell proliferation was evaluated by means of spectrophotometric readings taken with a Beckman Coulter DTX 880 multimode detector (Beckman Coulter Inc., Brea, Calif., USA) using a line at 589 nm and reference at 650 nm.
(§3) In order to correlate the stability of everolimus with the preservation of activity, samples incubated under the same conditions as in the stability study were dosed in HeLa and SH-SY5Y cells at established points in time. For this test the cell lines were seeded and maintained for 24 hours at 37° C. prior to treatment. […] The activity of the solution, by contrast, began to wane at 35 days, confirming a prolonged effect of inhibition of the micelles on cell proliferation. […] In order to better quantify the differences among the various samples in terms of the residual activity of everolimus, the residual anti-proliferative activity was calculated and is shown in FIGS. 3A and 3B.

HeLa cells = assay: as above; type: cell-based; details: for day of drastic decrease in anti-proliferative activity: tested at 5 nM
Protocol: as §1, §2, §3

SMILES: CO[C@H]1C[C@@H]2CC[C@@H](C)[C@@](O)(O2)C(=O)C(=O)N2CCCC[C@H]2C(=O)O[C@H]([C@H](C)C[C@@H]2CC[C@@H](OCCO)[C@H](OC)C2)CC(=O)[C@H](C)/C=C(\C)[C@@H](O)[C@@H](OC)C(=O)[C@H](C)C[C@H](C)/C=C/C=C/C=C/1C [solution, Everolimus]
- day by which everolimus had decayed (HPLC) ([1]; stored at 4° C.): ≤ 50 days
- day by which everolimus had decayed (HPLC) ([1]; stored at 25° C.): ≤ 35 days
- day by which everolimus had fallen to zero / decayed (HPLC) ([1]; stored at 37° C.): ≤ 14 days
- day at which activity began to wane (SH-SY5Y cells; 5 nM): 35 days
- day of drastic decrease in anti-proliferative activity (SH-SY5Y cells; sample stored at 4° C.): 50 days
- day of drastic decrease in anti-proliferative activity (SH-SY5Y cells; sample stored at 25° C.): 35 days
- day of drastic decrease in anti-proliferative activity (SH-SY5Y cells; sample stored at 37° C.): 14 days
- day at which activity began to wane (HeLa cells; 5 nM): 35 days
- day of drastic decrease in anti-proliferative activity (HeLa cells; sample stored at 4° C.): 50 days
- day of drastic decrease in anti-proliferative activity (HeLa cells; sample stored at 25° C.): 35 days
- day of drastic decrease in anti-proliferative activity (HeLa cells; sample stored at 37° C.): 14 days
